This note sets out measurements from US8273762B2, “Hexahydro-pyrrolo-isoquinoline compounds” (Janssen Pharmaceutica NV, priority 2005, dated 2012).

The term Ki denotes the equilibrium dissociation constant of an inhibitor or competing ligand from its target.

Like-named read-outs stand apart in the source and are kept apart here.

Experiment [1] concerns the target T1, cloned human H3 receptor, stably expressed in SK-N-MC cells (Homo sapiens, UniProt Q9Y5N1).
T1 construct: expressed in transfected cells
Kind of experiment: H3 receptor binding (N-[3H]-α-methylhistamine displacement). To be noted: SK-N-MC membranes, 0.8 nM N-[3H]-α-methylhistamine.

A further experiment addresses T2, Rat SERT (Rattus norvegicus, UniProt P31652).
T2 construct: A rat brain without cerebellum (Zivic Laboratories, Inc.—Pittsburgh, Pa.) was homogenized; tissue Zivic Laboratories, Inc; host or cells: rat brain without cerebellum, membranes
As to the kind of experiment: Rat brain SERT binding ([3H]-Citalopram displacement).

The target of experiment [2] is T3, human H3 receptor (SK-N-MC cells) (Homo sapiens, UniProt Q9Y5N1).
T3 construct: expressed in transfected cells; host or cells: SK-N-MC sublines with CRE-beta-galactosidase reporter
T3 sequence (Q9Y5N1 whole entry): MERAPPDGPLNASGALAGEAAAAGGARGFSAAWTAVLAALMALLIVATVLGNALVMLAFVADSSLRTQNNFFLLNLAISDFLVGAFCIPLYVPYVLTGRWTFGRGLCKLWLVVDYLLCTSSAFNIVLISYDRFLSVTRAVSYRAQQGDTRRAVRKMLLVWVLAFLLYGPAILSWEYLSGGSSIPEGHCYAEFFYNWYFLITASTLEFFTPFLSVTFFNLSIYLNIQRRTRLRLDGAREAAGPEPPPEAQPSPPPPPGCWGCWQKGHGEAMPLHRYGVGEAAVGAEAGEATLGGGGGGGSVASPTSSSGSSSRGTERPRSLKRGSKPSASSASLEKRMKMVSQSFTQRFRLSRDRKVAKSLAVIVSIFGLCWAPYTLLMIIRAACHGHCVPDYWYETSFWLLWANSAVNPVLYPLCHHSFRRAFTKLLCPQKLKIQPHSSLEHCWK
As to the kind of experiment: Cyclic AMP accumulation (β-galactosidase reporter, Schild analysis vs histamine). Format: cell-based.
Procedure: The reporter gene (β-galactosidase) is under the control of multiple cyclic AMP responsive elements. In 96-well plates, histamine was added directly to the cell media followed 5 min later by an addition of forskolin (5 μM final concentration). When appropriate, antagonists were added 10 min prior to agonist addition. After a 6-h incubation at 37° C., the media was aspirated and the cells washed with 200 μL of phosphate-buffered saline followed by a second aspiration. Cells were lysed with 25 μL 0.1× assay buffer (10 mM Na-phosphate, pH 8, 0.2 mM MgSO4, 0.01 mM MnCl2) and incubated at rt for 10 min. Cells were then incubated for 10 min with 100 μL of 1× assay buffer containing 0.5% Triton and 40 mM β-mercaptoethanol. Color was developed using 25 μL of 1 mg/mL substrate solution (chlorophenolred β-D galactopyranoside; Roche Molecular Biochemicals, Indianapolis, Ind.).

Experiment [3] has as its target T4, human SERT (HEK293 membranes) (Homo sapiens, UniProt P31645).
T4 construct: purchased Perkin-Elmer; host or cells: HEK293 membranes
As to the kind of experiment: Human SERT binding (3H-citalopram displacement).
Procedure: Nonspecific binding was determined in the presence of 10 μM fluoxetine for the SERT. The membranes were washed and the radioactivity was counted as above.

[4] abbreviates: rat brain membranes, 0.6 nM [3H]-Citalopram, read-out: Rat SERT Ki.

T1 sequence (Q9Y5N1 whole entry): as above
T2 sequence (P31652 whole entry): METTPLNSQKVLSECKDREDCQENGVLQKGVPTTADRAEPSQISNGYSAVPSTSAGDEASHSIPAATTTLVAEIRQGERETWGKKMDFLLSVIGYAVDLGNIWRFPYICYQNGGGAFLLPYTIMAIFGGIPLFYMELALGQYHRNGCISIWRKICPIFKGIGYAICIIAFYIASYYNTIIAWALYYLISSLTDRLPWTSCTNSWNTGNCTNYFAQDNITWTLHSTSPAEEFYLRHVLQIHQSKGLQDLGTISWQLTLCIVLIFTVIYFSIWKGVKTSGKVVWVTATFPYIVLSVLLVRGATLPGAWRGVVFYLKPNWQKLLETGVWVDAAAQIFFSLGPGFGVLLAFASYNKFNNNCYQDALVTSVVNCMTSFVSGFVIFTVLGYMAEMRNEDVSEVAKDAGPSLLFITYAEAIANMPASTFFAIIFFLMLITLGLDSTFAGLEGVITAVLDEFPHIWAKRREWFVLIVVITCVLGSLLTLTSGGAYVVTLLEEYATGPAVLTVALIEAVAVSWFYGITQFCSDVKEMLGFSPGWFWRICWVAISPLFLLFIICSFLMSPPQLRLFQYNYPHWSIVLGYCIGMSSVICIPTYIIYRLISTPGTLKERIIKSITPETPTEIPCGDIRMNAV
T4 sequence (P31645 whole entry): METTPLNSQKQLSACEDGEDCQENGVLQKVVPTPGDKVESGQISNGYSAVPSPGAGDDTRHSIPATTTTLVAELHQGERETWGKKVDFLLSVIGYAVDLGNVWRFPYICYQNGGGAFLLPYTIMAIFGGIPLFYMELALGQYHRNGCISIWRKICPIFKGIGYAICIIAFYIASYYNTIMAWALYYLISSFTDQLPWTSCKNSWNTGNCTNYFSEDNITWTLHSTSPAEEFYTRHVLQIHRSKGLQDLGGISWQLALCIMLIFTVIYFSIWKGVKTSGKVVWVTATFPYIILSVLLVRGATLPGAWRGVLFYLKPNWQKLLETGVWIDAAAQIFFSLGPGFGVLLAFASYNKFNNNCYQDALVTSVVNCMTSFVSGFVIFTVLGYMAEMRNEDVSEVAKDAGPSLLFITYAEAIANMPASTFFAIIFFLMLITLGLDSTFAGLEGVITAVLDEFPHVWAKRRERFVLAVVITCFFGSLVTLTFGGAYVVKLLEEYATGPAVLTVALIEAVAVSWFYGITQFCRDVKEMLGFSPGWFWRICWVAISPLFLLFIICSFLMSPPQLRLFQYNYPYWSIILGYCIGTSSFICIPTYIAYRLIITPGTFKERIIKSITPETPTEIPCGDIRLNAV

`c1ccc([C@@H]2CN3CCC[C@H]3c3cc(OCCCN4CCCCC4)ccc32)cc1` (relative stereo) [Example 1B, Trans-6-Phenyl-9-(3-piperidin-1-yl-propoxy)-1,2,3,5,6,10b-hexahydro-pyrrolo[2,1a]isoquinoline]: the Ki in experiment [1] was determined as 0.2 nM; on Rat SERT (setting [4]), 138 nM. Also, the Kb in experiment [2] (read-out: H3 pA2 (converted)) is 0.251 nM.

For `c1ccc([C@@H]2CN3CCC[C@H]3c3cccc(OCCCN4CCCCC4)c32)cc1` (relative stereo) [Example 1C, Trans-6-Phenyl-7-(3-piperidin-1-yl-propoxy)-1,2,3,5,6,10b-hexahydro-pyrrolo[2,1a]isoquinoline], the values for the Ki (in experiment [1]; on Rat SERT (setting [4])) were 68 nM and 4000 nM, respectively.

With `O=[N+]([O-])c1ccc([C@@H]2CN3CCC[C@H]3c3cc(OCCCN4CCCCC4)ccc32)cc1` (relative stereo) [Example 2B, Trans-6-(4-Nitro-phenyl)-9-(3-piperidin-1-yl-propoxy)-1,2,3,5,6,10b-hexahydro-pyrrolo[2,1-a]isoquinoline], the Ki in experiment [1] came out at 31 nM; on Rat SERT (setting [4]), 544 nM. Also, in experiment [2] (read-out: H3 pA2 (converted)), the Kb is 1.58 nM.

For the molecule `O=[N+]([O-])c1cccc([C@@H]2CN3CCC[C@H]3c3cccc(OCCCN4CCCCC4)c32)c1` (relative stereo) [Example 4D, Trans-6-(3-Nitro-phenyl)-7-(3-piperidin-1-yl-propoxy)-1,2,3,5,6,10b-hexahydro-pyrrolo[2,1-a]isoquinoline], the inhibition constant Ki was 1 nM in experiment [1] and 154 nM at Rat SERT (setting [4]).

For `FC(F)(F)c1ccc([C@@H]2CN3CCC[C@H]3c3cc(OCCCN4CCCCC4)ccc32)cc1` (relative stereo) [Example 7A, Cis-9-(3-Piperidin-1-yl-propoxy)-6-(4-trifluoromethyl-phenyl)-1,2,3,5,6,10b-hexahydro-pyrrolo[2,1-a]isoquinoline], at Rat SERT (setting [4]), the Ki stood at 27 nM.

Take `FC(F)(F)c1ccc([C@@H]2CN3CCC[C@@H]3c3cc(OCCCN4CCCCC4)ccc32)cc1` (relative stereo) [Example 7B, Trans-9-(3-Piperidin-1-yl-propoxy)-6-(4-trifluoromethyl-phenyl)-1,2,3,5,6,10b-hexahydro-pyrrolo[2,1-a]isoquinoline]: the inhibition constant (Ki) at Rat SERT (setting [4]) worked out at 25 nM.

Consider `FC(F)(F)c1ccc([C@@H]2CN3CCC[C@H]3c3cccc(OCCCN4CCCCC4)c32)cc1` (relative stereo) [Example 7C], for which the inhibitory constant (Ki) came out at 31 nM in experiment [1] and 630 nM at Rat SERT (setting [4]).

In the case of `Oc1ccc([C@@H]2CN3CCC[C@H]3c3cccc(OCCCN4CCCCC4)c32)cc1` (relative stereo) [Example 9B], the inhibition constant Ki in experiment [1] came to 1000 nM; on Rat SERT (setting [4]), 6000 nM.

Turning to `COc1cccc([C@@H]2CN3CCC[C@H]3c3cc(OCCCN4CCCCC4)ccc32)c1` (relative stereo) [Example 10B, Trans-6-(3-Methoxy-phenyl)-9-(3-piperidin-1-yl-propoxy)-1,2,3,5,6,10b-hexahydro-pyrrolo[2,1-a]isoquinoline], the values for the Ki (in experiment [1]; on Rat SERT (setting [4])) were 2 nM and 37 nM, respectively. Moreover, the Kb in experiment [2] (read-out: H3 pA2 (converted)) is 0.251 nM.

Take `COc1cccc([C@@H]2CN3CCC[C@H]3c3cccc(OCCCN4CCCCC4)c32)c1` (relative stereo) [Example 10C, Trans-6-(3-Methoxy-phenyl)-7-(3-piperidin-1-yl-propoxy)-1,2,3,5,6,10b-hexahydro-pyrrolo[2,1-a]isoquinoline]: the inhibitory constant (Ki) in experiment [1] came out at 82 nM; at Rat SERT (setting [4]), 2000 nM.

Take `Clc1cccc([C@H]2CN3CCC[C@H]3c3cc(OCCCN4CCCCC4)ccc32)c1` (relative stereo) [Example 11B, Trans-6-(3-Chloro-phenyl)-9-(3-piperidin-1-yl-propoxy)-1,2,3,5,6,10b-hexahydro-pyrrolo[2,1-a]isoquinoline]: the Ki in experiment [1] worked out at 1 nM; on Rat SERT (setting [4]), 91 nM. Besides, the Kb in experiment [2] (read-out: H3 pA2 (converted)) was 0.501 nM.

Take `Clc1cccc([C@@H]2CN3CCC[C@H]3c3cccc(OCCCN4CCCCC4)c32)c1` (relative stereo) [Example 11C]: the values for the Ki (in experiment [1]; at Rat SERT (setting [4])) were 136 nM and 1000 nM, respectively.

With `Oc1ccccc1[C@H]1CN2CCC[C@H]2c2cc(OCCCN3CCCCC3)ccc21` (relative stereo) [Example 16], the Ki in experiment [1] came to 4 nM; in experiment [3] it was 112 nM. The Kb in experiment [2] (read-out: H3 pA2 (converted)) was 1.26 nM.

Take `COc1ccc([C@H]2CN3CCC[C@H]3c3cc(OCCCN4CCCCC4)ccc32)cc1OC` (relative stereo) [Example 18]: the Ki came to 0.9 nM in experiment [1] and 13 nM in experiment [3]. Also, the Kb in experiment [2] (read-out: H3 pA2 (converted)) was 0.501 nM.

Regarding `COc1ccc([C@H]2CN3CCC[C@H]3c3cc(OCCCN4CCCCC4)ccc32)c(OC)c1` (relative stereo) [Example 19], the inhibitory constant (Ki) in experiment [1] came to 1 nM; in experiment [3], 5 nM. Further, the Kb in experiment [2] (read-out: H3 pA2 (converted)) was 0.398 nM.

Consider `COc1ccc(OC)c([C@H]2CN3CCC[C@H]3c3cc(OCCCN4CCCCC4)ccc32)c1` (relative stereo) [Example 20], for which the values for the inhibition constant Ki in experiment [1] and in experiment [3] were 1 nM and 43 nM, respectively. Further, the Kb in experiment [2] (read-out: H3 pA2 (converted)) was 1 nM.

With `COc1cc(OC)cc([C@H]2CN3CCC[C@H]3c3cc(OCCCN4CCCCC4)ccc32)c1` (relative stereo) [Example 21], the figures for the Ki in experiment [1] and in experiment [3] were 1 nM and 5 nM, respectively. Besides, in experiment [2] (read-out: H3 pA2 (converted)), the Kb was 0.794 nM.

With `COc1cc([C@H]2CN3CCC[C@H]3c3cc(OCCCN4CCCCC4)ccc32)cc(OC)c1OC` (relative stereo) [Example 22], the Ki turned out to be 0.8 nM in experiment [1] and 220 nM in experiment [3]. Moreover, the Kb in experiment [2] (read-out: H3 pA2 (converted)) was 0.631 nM.

With `Ic1cccc([C@H]2CN3CCC[C@H]3c3cc(OCCCN4CCCCC4)ccc32)c1` (relative stereo) [Example 32], the inhibition constant Ki came to 1 nM in experiment [1] and 11 nM in experiment [3]. Moreover, the Kb in experiment [2] (read-out: H3 pA2 (converted)) is 0.316 nM.

For the molecule `C[Si](C)(C)C#Cc1cccc([C@H]2CN3CCC[C@H]3c3cc(OCCCN4CCCCC4)ccc32)c1` (relative stereo) [Example 33], the inhibitory constant (Ki) in experiment [1] was found to be 7 nM; on Rat SERT, 33 nM. Further, in experiment [2], the Kb is 7.94 nM.

For the molecule `C#Cc1cccc([C@H]2CN3CCC[C@H]3c3cc(OCCCN4CCCCC4)ccc32)c1` (relative stereo) [Example 34], the values for the Ki in experiment [1] and in experiment [3] were 2 nM and 3 nM, respectively. Further, in experiment [2] (read-out: H3 pA2 (converted)), the Kb was 1 nM.

In the case of `Ic1ccc([C@@H]2CN3CCC[C@H]3c3cc(OCCCN4CCCCC4)ccc32)cc1` (relative stereo) [Example 35A, Cis-6-(4-Iodo-phenyl)-9-(3-piperidin-1-yl-propoxy)-1,2,3,5,6,10b-hexahydro-pyrrolo[2,1-a]isoquinoline], the Ki in experiment [1] came to 4 nM; in experiment [3], 7 nM. Moreover, the Kb in experiment [2] (read-out: H3 pA2 (converted)) is 3.98 nM.

With `C#Cc1ccc([C@H]2CN3CCC[C@H]3c3cc(OCCCN4CCCCC4)ccc32)cc1` (relative stereo) [Example 37], the Ki in experiment [1] turned out to be 4 nM; in experiment [3] it was 0.8 nM. For the same molecule, the Kb in experiment [2] (read-out: H3 pA2 (converted)) is 1.58 nM.

For the molecule `COc1ccc([C@@H]2CN3CCC[C@H]3c3cc(C#CCCN4CCCCC4)ccc32)cc1` (relative stereo) [Example 96A, Cis-6-(4-methoxy-phenyl)-9-(4-piperidin-1-yl-but-1-ynyl)-1,2,3,5,6,10b-hexahydro-pyrrolo[2,1-a]isoquinoline], the inhibition constant (Ki) in experiment [1] worked out at 1 nM; in experiment [3] it was 9 nM. The Kb in experiment [2] (read-out: H3 pA2 (converted)) is 6.31 nM.

Turning to `CSc1ccc([C@@H]2CN3CCC[C@H]3c3ccc(C#CCCN4CCCCC4)cc32)cc1` (relative stereo) [Example 97A, Cis-6-(4-methylsulfanyl-phenyl)-8-(4-piperidin-1-yl-but-1-ynyl)-1,2,3,5,6,10b-hexahydro-pyrrolo[2,1-a]isoquinoline], the inhibition constant Ki in experiment [1] turned out to be 3 nM; in experiment [3], 2000 nM. In addition, the Kb in experiment [2] (read-out: H3 pA2 (converted)) is 1.58 nM.

Regarding `CSc1ccc([C@@H]2CN3CCC[C@H]3c3cc(C#CCCN4CCCCC4)ccc32)cc1` (relative stereo) [Example 98A, Cis-6-(4-methylsulfanyl-phenyl)-9-(4-piperidin-1-yl-but-1-ynyl)-1,2,3,5,6,10b-hexahydro-pyrrolo[2,1-a]isoquinoline], the Ki is 4 nM in experiment [1] and 2 nM in experiment [3]. For the same molecule, the Kb in experiment [2] (read-out: H3 pA2 (converted)) was 10 nM.

`CSc1ccc(C2CN3CCCC3c3cccc(OCCCN4CCCCC4)c32)cc1` (stereo not shown) [Example 39C, 6-(4-Methylsulfanyl-phenyl)-7-(3-piperidin-1-yl-propoxy)-1,2,3,5,6,10b-hexahydro-pyrrolo[2,1-a]isoquinoline]: the inhibition constant (Ki) in experiment [1] amounted to 36 nM; on Rat SERT (setting [4]), 69 nM.

`CSc1ccc([C@@H]2CN3CCC[C@@H]3c3cc(OCCCN4CCOCC4)ccc32)cc1` [Example 89, (1R,6S)-6-(4-Methylsulfanyl-phenyl)-9-(3-morpholin-4-yl-propoxy)-1,2,3,5,6,10b-hexahydro-pyrrolo[2,1-a]isoquinoline]: the Ki amounted to 16 nM in experiment [1] and 3 nM on Rat SERT (setting [4]).

Consider `CSc1ccc([C@H]2CN3CCC[C@H]3c3cc(OCCCN4CCOCC4)ccc32)cc1` [Example 90, (1S,6R)-6-(4-Methylsulfanyl-phenyl)-9-(3-morpholin-4-yl-propoxy)-1,2,3,5,6,10b-hexahydro-pyrrolo[2,1-a]isoquinoline], for which the values for the inhibition constant Ki (in experiment [1]; on Rat SERT (setting [4])) were 10 nM and 24 nM, respectively.

Consider `COc1ccc([C@H]2CN3CCC[C@H]3c3cc(OCCCN4CCOCC4)ccc32)cc1` [Example 91, (1S,6R)-6-(4-Methoxy-phenyl)-9-(3-morpholin-4-yl-propoxy)-1,2,3,5,6,10b-hexahydro-pyrrolo[2,1-a]isoquinoline], for which, on Rat SERT (setting [4]), the Ki amounted to 60 nM. Also, the Kb in experiment [2] (read-out: H3 pA2 (converted)) is 3.16 nM.
